Reference: patent publication US20170044471A1, “Sulfate-Free Liquid Laundry Detergent” (The Sun Products Corporation, priority 2015, published 2017)
Read-outs that look alike come from different tables or passages of the source.

Columns and labels:
Zein corn protein [1] = test system: Zein corn protein
Source text: (§1) Zein score can be measured using a Zein test (Gott, E., Aesthet. Medzin., Tenside 15: 313 (1966)), although other methodologies are known in the art. The Zein test determines the extent of denaturation of Zein corn protein after exposure to a surfactant for a given period of time. The higher the Zein score, the greater the skin irritation potential.
(§2) Zein scores for formulations (or detergent products) described herein refer to Zein scores obtained when a 10% dilution of a given formulation (or detergent product) is tested. Zein scores for individual surfactants refer to Zein scores obtained from testing 1% active surfactant solutions.
(§3) The “test surfactant solution” can be a solution with 1 wt % active surfactant when a surfactant is tested by itself Alternatively, the test surfactant solution can be a 10 wt % dilution of a formulation or product described herein. […] An aliquot (3.0 mL) was accurately measured and removed and set aside in a closed container as a blank solution. […] If all of the Zein protein was dissolved, 1 gram of additional Zein protein was added so that some solid remained undissolved. The mixture was stirred for one hour at room temperature. Undissolved Zein was then removed by filtration to obtain a filtrate solution. A 3.0 ml aliquot of the filtrate solution was accurately measured and placed in a tared aluminum pan and dried in an oven at 70° C. The percent of solids was calculated. Likewise, the blank solution was dried at 70° C. and the solids content of this 3 mL aliquot was determined. The solid weight in the blank solution was subtracted from the solid weight in the filtration solution and the quantity of dissolved Zein in the filtration solution was calculated by difference and reported as g Zein/100 g surfactant solution (also called “% Zein” or “Zein score”).
(§4) As a control, a Zein score was also measured for the Commercial Comparator using a 10% dilution.

Zein = settings: normalized to SLS as 100%; Stepan Chemical company literature; cited from earlier work
Zein corn protein [2] = assay: Zein test (Zein score, skin irritation potential); settings: 1 wt % active surfactant solution
Source text: as §1, §2, §3, §4

Methyl ester sulfonate C16-C18 [Methyl ester sulfonate C16-C18 (MES)]
% Zein (g/100 g surfactant solution) (Zein corn protein [1]): 1.55 g/100 g surfactant solution

Cocoamidopropyl betaine [Cocoamidopropyl betaine (CAPB)]
Normalized Zein Score of Surfactant (Zein): 30%
% Zein (g/100 g surfactant solution) (Zein corn protein [1]): 0.56 g/100 g surfactant solution

Sodium C14-16 Olefin Sulfonate (AOS) [BIO-TERGE AS-40]
Normalized Zein Score of Surfactant (Zein): 75%

Disodium Laureth Sulfosuccinate [STEPAN-MILD SL3-BA]
Normalized Zein Score of Surfactant (Zein): 44%

CCCCCCCCCCC(C(=O)OC)S(=O)(=O)O.[Na] (centres unmarked) [MES, Sodium methyl 2-sulfolaurate]
Normalized Zein Score of Surfactant (Zein): 68%

Sodium Methyl Cocoyl Taurate [Pureact WS Conc.]
Normalized Zein Score of Surfactant (Zein): 45%

CCCCCCCCCCCCOS(=O)(=O)[O-].[Na+] [Sodium lauryl sulfate (SLS), Sodium lauryl sulfate]
% Zein (g/100 g surfactant solution) (Zein corn protein [2]): 2.70 g/100 g surfactant solution
